The values below come from US12564622B2, “Preventing cytokine release syndrome” (priority 2017, dated 2026).

The test system of assay [1] is polymicrobial peritoneal sepsis induced by CLP. Put plainly: Cecal ligation and puncture (CLP) sepsis. The class given is in vivo, mouse (C57BL/6). As to conditions: for circulating pro-inflammatory cytokines after CLP: pre-treatment. The protocol:
(§1) Cecal ligation and puncture (CLP) was performed as described elsewhere (Rittirsch et al., 2009 Nature Protocols, 4:31-6). Briefly, six-to-eight week old female C57BL/6 mice were anesthetized and following abdominal incision, the cecum was ligated at about 14 the distance from the luminal entry to its tip. The ligated cecum was punctured through and through with a 22 G needle at ½ and ¾ the distance from the luminal entry to its tip. A small amount of the cecal content was gently pushed out of the four openings into the peritoneum. Subsequently, the abdominal muscles were sutured and the skin was closed with two staples. Five hundred microliters of saline were immediately injected subcutaneously to the mice. For the groups treated with antibiotics, imipenem (Sigma) was injected subcutaneously at 25 mg/kg starting from 20 hours after CLP, with a schedule of twice a day on day one and once a day thereafter for 10 days. Human ANP (Sigma) was dissolved in saline, loaded in mini-osmotic pumps (ALZET) with a release rate of 12 μg/day and implanted subcutaneously in the back of mice 12 hours before the CLP, with pumps loaded with saline serving as controls. Metyrosine was freshly dissolved in PBS and injected IP at 60 mg/kg/day for three days before the CLP. Twenty minutes before the CLP, metyrosine was injected at 60 mg/kg IP into the right side. The control groups were injected with PBS. For the following 4 days, metyrosine was injected at 30 mg/kg/day IP into the right side. Hydration of mice was supported by daily subcutaneous injection of 0.5 ml saline.
as §1, with “CLP” for “Cecal ligation and puncture (CLP)”, “(see, e.g., Rittirsch” for “(Rittirsch”, “2008 Rev Immunol 8:776-787).” for “2009 Nature Protocols, 4:31-6).”, “6-8 weeks” for “six-to-eight week”, “¼” for “14”, “days.” for “days. Human ANP (Sigma) was dissolved in saline, loaded in mini-osmotic pumps (ALZET) with a release rate of 12 μg/day and implanted subcutaneously in the back of mice 12 hours before the CLP, with pumps loaded with saline serving as controls.”

The test system of assay [2] is Eμ-ALL bearing C57BL/6 mice treated with mCART19. Put plainly: mCART19 treatment of syngeneic Eμ-ALL B-ALL model. The class given is in vivo, mouse (C57BL/6). As to conditions: for catecholamine and cytokine release: 24 and 72 hours after mCART19; for therapeutic (antitumor) efficacy versus mCART19 alone: prophylaxis with ANP pump or metyrosine IP. The protocol: The Eμ-ALL cell line was derived from a lymphoid malignancy in an Eμ-myc transgenic mouse and upon IV injection, can develop B-ALL in C57BL/6 mice. The Eμ-ALL cells were co-cultured with feeder NIH-3T3 cells that were irradiated at 60 Gy, in RPMI 1640 media supplemented with 10% FBS, 0.05 mM 2-Mercaptoethanol and antibiotics. Eμ-ALL cells were transfected with luciferase via lentivirus. 2×10^6 Eμ-ALL cells were IV injected in female 6-8 week-old C57BL/6 mice via tail vein and after 6 days, mice were IP injected with cyclophosphamide (CPA) at 100 mg/kg for pre-conditioning as described elsewhere (see, e.g., Davila et al., 2013 PLoS One 8:e61338). One day after CPA treatment, 10×10^6 mCART19 cells were IV injected in the mice. Metyrosine was injected IP at 40 mg/kg/day for three days before the mCART19 injection. On the day of mCART19 injection, a fourth dose of 40 mg/kg was given IP and the mice were subsequently injected four more times at daily intervals at 30 mg/kg. One day before mCART19 injection, mini-osmotic pumps (ALZET) loaded with hANP with a release rate of 12 μg/day were implanted subcutaneously in the back of mice. Tumor load was monitored by Xenogen before and after mCART19 injection.

Each structure is given as a SMILES string. Where “and” joins values, the source holds several entries; their conditions need not be identical. Equal values may be shown once. Entries after “also recorded” stand apart in the source; their conditions may differ.

Regarding `CC[C@H](C)[C@@H]1NC(=O)[C@H](CCCNC(=N)N)NC(=O)[C@H](CC(=O)O)NC(=O)[C@H](CCSC)NC(=O)[C@H](CCCNC(=N)N)NC(=O)CNC(=O)CNC(=O)[C@H](Cc2ccccc2)NC(=O)[C@@H](NC(=O)[C@H](CO)NC(=O)[C@H](CO)NC(=O)[C@H](CCCNC(=N)N)NC(=O)[C@H](CCCNC(=N)N)NC(=O)[C@H](CC(C)C)NC(=O)[C@@H](N)CO)CSSC[C@@H](C(=O)N[C@@H](CC(N)=O)C(=O)N[C@@H](CO)C(=O)N[C@@H](Cc2ccccc2)C(=O)N[C@@H](CCCNC(=N)N)C(=O)N[C@@H](Cc2ccc(O)cc2)C(=O)O)NC(=O)CNC(=O)[C@H](CC(C)C)NC(=O)CNC(=O)[C@H](CO)NC(=O)[C@H](CCC(N)=O)NC(=O)[C@H](C)NC(=O)CNC1=O` [ANP, atrial natriuretic peptide], the “circulating pro-inflammatory cytokines after CLP” value in assay [1] (24 hours after CLP) was “greatly reduced”. In addition, the “survival after CLP” value in assay [1] (ANP by osmotic pump implanted 12 hours before CLP) is listed as “almost half of the animals survived the acute phase”. In addition, the “pathologic examination (peritoneum, lungs, liver)” value in assay [1] (ANP pre-treated, 24 hours after CLP) is “less peritoneal inflammation, pulmonary septal thickening, and hepatic inflammation; also recorded: lower or absent pulmonary septal thickening and vacuolization”. Moreover, in assay [2], the “catecholamine and cytokine release” value is “reduced”; the “therapeutic (antitumor) efficacy versus mCART19 alone” value is “matched the therapeutic efficacy”.
Take `C[C@](N)(Cc1ccc(O)cc1)C(=O)O` [metyrosine, α-methyl-tyrosine]: the “circulating pro-inflammatory cytokines after CLP” value in assay [1] (24 hours after CLP) was “substantially reduced”. Besides, in assay [1] (metyrosine IP pre-treatment), the “mice surviving CLP (acute phase)” value was 20% and 22%. Besides, the “fraction of mice surviving CLP” value in assay [1] (metyrosine pre-treatment plus imipenem from 20 hours after CLP) is “> ⅔”. Further, in assay [2], the “catecholamine and cytokine release” value is reported as “reduced”; the “therapeutic (antitumor) efficacy versus mCART19 alone” value is “matched the therapeutic efficacy”.
